In the supplement of paper PMC11061612:

Key:
Assay in all cases: combination Emax (second highest fraction inhibited in the dose matrix, 72 h); higher = more inhibition; extreme values may be limits of the assay
[1] = tested on: 8-MG-BA (Glioblastoma)
Method in brief: (§1)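 After 24 hours at 37°C and 5% CO2 in 1536-well plates, cells in DMEM/F12 or RPMI plus 10% FBS received two-drug dose matrices for 72 hours. Viability came from CellTiter-Glo 2.0 luminescence and was scaled as inhibition, anchored at 0 by vehicle wells and at 1 by blank wells. Combination Emax is taken as the second-highest inhibition in the matrix, and Bliss excess as the observed combination effect less EA + EB − EA·EB, with EA and EB the single-agent effects.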

[2] = tested on: A3-KAW (B-Cell Non-Hodgkin's Lymphoma)
Method in brief: as §1

[3] = tested on: A498 (Kidney Carcinoma)
Method in brief: as §1

[4] = tested on: ARH-77 (Non-Cancerous)
Method in brief: as §1

[5] = tested on: BICR22 (Oral Cavity Carcinoma)
Method in brief: as §1

[6] = tested on: COLO-320-HSR (Colorectal Carcinoma)
Method in brief: as §1

[7] = tested on: COR-L311 (Small Cell Lung Carcinoma)
Method in brief: as §1

[8] = tested on: ECC10 (Gastric Carcinoma)
Method in brief: as §1

[9] = tested on: Hs-445 (Non-Cancerous)
Method in brief: as §1

[10] = tested on: IGR-37 (Melanoma)
Method in brief: as §1

[11] = tested on: KARPAS-422 (B-Cell Non-Hodgkin's Lymphoma)
Method in brief: as §1

[12] = tested on: MDST8 (Colorectal Carcinoma)
Method in brief: as §1

[13] = tested on: NCI-H1693 (Lung Adenocarcinoma)
Method in brief: as §1

[14] = tested on: NCI-H2066 (Squamous Cell Lung Carcinoma)
Method in brief: as §1

[15] = tested on: NCI-H2141 (Small Cell Lung Carcinoma)
Method in brief: as §1

[16] = tested on: NCI-H2591 (Mesothelioma)
Method in brief: as §1

[17] = tested on: NCI-H64 (Small Cell Lung Carcinoma)
Method in brief: as §1

[18] = tested on: PANC-10-05 (Pancreatic Carcinoma)
Method in brief: as §1

[19] = tested on: SK-MES-1 (Squamous Cell Lung Carcinoma)
Method in brief: as §1

[20] = tested on: TT2609-C02 (Thyroid Gland Carcinoma)
Method in brief: as §1

SMILES | combination Emax [1] | combination Emax [2] | combination Emax [3] | combination Emax [4] | combination Emax [5] | combination Emax [6] | combination Emax [7] | combination Emax [8] | combination Emax [9] | combination Emax [10] | combination Emax [11] | combination Emax [12] | combination Emax [13] | combination Emax [14] | combination Emax [15] | combination Emax [16] | combination Emax [17] | combination Emax [18] | combination Emax [19] | combination Emax [20]
Cc1cc2ncnn2cc1Nc1ncc2c(n1)n(C1CCOCC1)c(=O)n2C [AZD7648] + C[C@@H]1COCCN1C2=NC(=NC(=C2)C3(CC3)[S@](=N)(=O)C)C4=C5C=CNC5=NC=C4 [AZD6738] (first compound max 10 µM, 7x7, partner max 10 µM) | 0.769 | 0.969 | 0.585 | 0.89 | 0.761 | 0.616 | 0.214 | 0.421 | 0.853 | 0.761 | 0.639 | 0.775 | 0.294 | 0.379 | 0.578 | 0.39 | 0.811 | 0.49 | 0.72 | 0.191
NC1(C(=O)N[C@@H](CCO)c2ccc(Cl)cc2)CCN(c2ncnc3[nH]ccc23)CC1 [Capivasertib] + COc1nnc2ccc(N3CCC(c4ccc(OCCN5CCN(C)C(=O)[C@H]5C)cc4)CC3)nn12 [AZD5153] (first compound max 10 µM, 7x7, partner max 1 µM) | 0.797 | 1 | 0.824 | 0.885 | 0.631 | 0.242 | 1 | 0.981 | 0.722 | 0.662 | 0.68 | 0.733 | 0.554 | 0.77 | 0.377 | 0.334 | 0.548 | 0.669 | 0.583 | 0.461
NC1(C(=O)N[C@@H](CCO)c2ccc(Cl)cc2)CCN(c2ncnc3[nH]ccc23)CC1 [Capivasertib] + C[C@@H]1COCCN1C2=NC(=NC(=C2)C3(CC3)[S@](=N)(=O)C)C4=C5C=CNC5=NC=C4 [AZD6738] (first compound max 10 µM, 7x7, partner max 10 µM) | 0.873 | 0.992 | 0.694 | 0.927 | 0.812 | 0.507 | 0.787 | 0.498 | 0.78 | 0.733 | 0.566 | 0.765 | 0.44 | 0.626 | 0.557 | 0.482 | 0.861 | 0.519 | 0.855 | 0.364
CN(CCO)CC[C@H](CSc1ccccc1)Nc1ccc(S(=O)(=O)NC(=O)c2ccc(N3CCC([C@@H](O)c4ccccc4-c4ccc(Cl)cc4)CC3)cc2)cc1S(=O)(=O)C(F)(F)F [AZD4320] + CCN(CCO)CCCOc1ccc2c(Nc3cc(CC(=O)Nc4cccc(F)c4)[nH]n3)ncnc2c1 [AZD2811] (first compound max 1 µM, 7x7, partner max 1 µM) | 0.21 | 0.371 | 0.218 | 0.95 | 0.828 | 0.0615 | 1 | 1 | 0.926 | 0.116 | 0.903 | 0.918 | 0.221 | 0.543 | 0.896 | 0.561 | 1 | 0.18 | 0.342 | 0.505
CC1(C)CCC(CN2CCN(c3ccc(C(=O)NS(=O)(=O)c4ccc(NCC5CCOCC5)c([N+](=O)[O-])c4)c(Oc4cnc5[nH]ccc5c4)c3)CC2)=C(c2ccc(Cl)cc2)C1 [Venetoclax] + C1CN(CCC1(C(=O)N[C@@H](CCO)C2=CC=C(C=C2)Cl)N)C3=NC=NC4=C3C=CN4 [Capivasertib] (first compound max 1 µM, 7x7, partner max 3 µM) | 0.26 | 0.282 | 0.537 | 0.7 | 0.272 | 0.0935 | 0.842 | 0.959 | 0.751 | 0.556 | 0.917 | 0.317 | 0.197 | 0.424 | 0.249 | 0.174 | 0.361 | 0.273 | 0.202 | 0.139
C[C@@H](c1ccc2nccn2c1)n1nnc2ncc(-c3cnn(C)c3)nc21 [Savolitinib] + CC1(C)CCC(CN2CCN(c3ccc(C(=O)NS(=O)(=O)c4ccc(NCC5CCOCC5)c([N+](=O)[O-])c4)c(Oc4cnc5[nH]ccc5c4)c3)CC2)=C(c2ccc(Cl)cc2)C1 [Venetoclax] (first compound max 1 µM, 7x7, partner max 1 µM) | 0.12 | 0.188 | 0.172 | 0.251 | 0.108 | 0.213 | 0.525 | 0.5 | 0.292 | 0.3 | 0.257 | 0.176 | 0.0814 | 0.195 | 0.198 | 0.15 | 0.23 | 0.117 | 0.0772 | 0.0924
CC1(C)CCC(CN2CCN(c3ccc(C(=O)NS(=O)(=O)c4ccc(NCC5CCOCC5)c([N+](=O)[O-])c4)c(Oc4cnc5[nH]ccc5c4)c3)CC2)=C(c2ccc(Cl)cc2)C1 [Venetoclax] + C=CCn1c(=O)c2cnc(Nc3ccc(N4CCN(C)CC4)cc3)nc2n1-c1cccc(C(C)(C)O)n1 [AZD1775] (first compound max 1 µM, partner max 1 µM) | 0.755 | 0.937 | 0.452 | 0.997 | 0.782 | 0.801 | 0.808 | 0.989 | 0.99 | 0.852 | 0.995 | 0.378 | 0.308 | 0.203 | 0.792 | 0.279 | 0.942 | 0.486 | 0.565 | 0.639
Cc1cc2ncnn2cc1Nc1ncc2c(n1)n(C1CCOCC1)c(=O)n2C [AZD7648] + C=CCn1c(=O)c2cnc(Nc3ccc(N4CCN(C)CC4)cc3)nc2n1-c1cccc(C(C)(C)O)n1 [AZD1775] (first compound max 10 µM, partner max 1 µM) | 0.648 | 0.896 | 0.521 | 0.969 | 0.643 | 0.744 | 0.571 | 0.797 | 0.909 | 0.674 | 0.784 | 0.513 | 0.323 | 0.339 | 0.647 | 0.368 | 0.89 | 0.49 | 0.711 | 0.304
NC1(C(=O)N[C@@H](CCO)c2ccc(Cl)cc2)CCN(c2ncnc3[nH]ccc23)CC1 [Capivasertib] + Cn1cnc2c(F)c(Nc3ccc(Br)cc3Cl)c(C(=O)NOCCO)cc21 [Selumetinib] (first compound max 10 µM, 7x7, partner max 10 µM) | 0.592 | 0.698 | 0.799 | 0.674 | 0.949 | 0.214 | 0.625 | 0.506 | 0.623 | 0.897 | 0.58 | 0.757 | 0.44 | 0.685 | 0.214 | 0.469 | 0.321 | 0.727 | 0.768 | 0.542
Cc1cc2ncnn2cc1Nc1ncc2c(n1)n(C1CCOCC1)c(=O)n2C [AZD7648] + O=C(c1cc(Cc2n[nH]c(=O)c3ccccc23)ccc1F)N1CCN(C(=O)C2CC2)CC1 [Olaparib] (first compound max 10 µM, 7x7, partner max 10 µM) | 0.329 | 0.656 | 0.441 | 0.522 | 0.141 | 0.073 | 0.456 | 0.158 | 0.373 | 0.109 | 0.55 | 0.289 | 0.172 | 0.295 | 0.218 | 0.248 | 0.134 | 0.299 | 0.177 | 0.156
Cn1cnc2c(F)c(Nc3ccc(Br)cc3Cl)c(C(=O)NOCCO)cc21 [Selumetinib] + CCN(CCO)CCCOc1ccc2c(Nc3cc(CC(=O)Nc4cccc(F)c4)[nH]n3)ncnc2c1 [AZD2811] (first compound max 10 µM, 7x7, partner max 1 µM) | 0.286 | 0.597 | 0.383 | 0.369 | 0.538 | 0.249 | 0.733 | 0.841 | 0.414 | 0.774 | 0.263 | 0.63 | 0.286 | 0.286 | 0.167 | 0.29 | 0.516 | 0.464 | 0.511 | 0.622
COc1cc2ncnc(Nc3ccc(F)c(Cl)c3)c2cc1OCCCN1CCOCC1 [Gefitinib] + CC(C)n1c(=O)n(C)c2cnc3cc(F)c(-c4ccc(OCCCN5CCCCC5)nc4)cc3c21 [AZD1390] (first compound max 10 µM, 7x7, partner max 0.3 µM) | 0.268 | 0.605 | 0.298 | 0.272 | 0.272 | 0.19 | 0.0812 | 0.12 | 0.369 | 0.252 | 0.128 | 0.0181 | 0.419 | 0.384 | 0.0717 | 0.0235 | 0.152 | 0.202 | 0.408 | 0.0663
